Results published in patent publication US5436260A, “Angiotensin II receptor antagonists” (Warner-Lambert Company, priority 1994, dated 1995).
Structures can show the parent of a compound that is named as a salt.

Molecular target: T1, AT1 receptor (Rattus norvegicus, UniProt P25095)
T1 construct: rat liver membranes; from tissue; host or cells: rat liver membranes
T1 sequence (P25095 1-359): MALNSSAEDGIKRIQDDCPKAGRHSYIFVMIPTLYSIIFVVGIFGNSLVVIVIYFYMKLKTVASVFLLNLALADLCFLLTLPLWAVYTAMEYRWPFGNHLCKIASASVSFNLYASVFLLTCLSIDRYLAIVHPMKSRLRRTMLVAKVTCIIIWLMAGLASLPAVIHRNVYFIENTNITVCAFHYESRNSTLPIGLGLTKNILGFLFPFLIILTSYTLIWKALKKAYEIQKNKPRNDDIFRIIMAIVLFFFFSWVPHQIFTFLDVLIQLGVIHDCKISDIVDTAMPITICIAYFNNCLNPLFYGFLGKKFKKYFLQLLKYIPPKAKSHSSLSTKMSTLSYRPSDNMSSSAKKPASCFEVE
Assay: [^3 H]angiotensin II binding to rat liver membranes (AT1 test)
Conditions: inhibition of [^3 H]angiotensin II binding
Protocol: The compounds of Formula I or Ia are antagonists of angiotensin II. Dudley, D. T., et al, Molecular Pharmacology 1990;38:370-377 reported the existence of 2 subclasses of angiotensin II binding sites in rabbit adrenal gland and uterus and in the rat liver which differ in their tissue distribution and affinity for various peptide and nonpeptide ligands. Thus, the compounds of Formula I or Ia were tested for their ability to inhibit [^3 H]angiotensin II binding to rat liver membranes (AT1 test) according to the methods described by Dudley, D. T., et al, Molecular Pharmacology 1990;38:370-7. […] It is well established that compounds which antagonize the effect of angiotensin II at the AT1 receptor have value for treatment of hypertension and heart failure.

| IC50 | SMILES |
| --- | --- |
| 3.21 nM | CCCCc1ncc(/C=C2/C(=O)NC(=O)N2CCCC)n1Cc1ccc(NS(=O)(=O)C(F)(F)F)cc1 [Example 71a, Z-N-[4-[[2-butyl-5-[(3-butyl-2,5-dioxo-4-imidazolidinylidene)methyl]-1H-imidazol-1-1yl]methyl]phenyl]-1,1,1,-trifluoromethanesulfonamide] |
| 4.18 nM | CCCCc1ncc(/C=C2\C(=O)NC(=O)N2CCCC)n1Cc1ccc(NS(=O)(=O)C(F)(F)F)cc1 [Example 71b, E-N-[4-[[2-butyl-5-[(3-butyl-2,5-dioxo-4-imidazolidinylidene)methyl]-1H-imidazol-1-yl]methyl]phenyl]-1,1,1-trifluoromethanesulfonamide] |
| 3.36 nM | CCCCc1ncc(/C=C2/C(=O)NC(=O)N2CCCC)n1Cc1ccc(-c2nn[nH]n2)cc1 [Example 76a, Z-1-Butyl-5-[[2-butyl-3-[[4-(1H-tetrazol-5-yl)phenyl]methyl]-3H-imidazol-4-yl]methylene]-2,4-imidazolidinedione] |
| 2.48 nM | CCCCc1ncc(/C=C2\C(=O)NC(=O)N2CCCC)n1Cc1ccc(-c2nn[nH]n2)cc1 [Example 76b, E-1-Butyl-5-[[2-butyl-3-[[4-(1H-tetrazol-5-yl)phenyl]methyl]-3H-imidazol-4-yl]methylene]-2,4-imidazolidinedione] |
| 10 nM | CCCCc1ncc(/C=C2/C(=O)NC(=O)N2CCCC)n1Cc1ccc(C(=O)OC)cc1Cl [Example 87a, Methyl Z-4-[[2-butyl-5-[(3-butyl-2,5-dioxo-4-imidazolidinylidene)methyl]-1H-imidazol-1-yl]methyl]-3-chlorobenzoate] |
| 7.32 nM | CCCCc1ncc(/C=C2\C(=O)NC(=O)N2CCCC)n1Cc1ccc(C(=O)OC)cc1Cl [Example 87b] |
| 276 nM | CCCCc1ncc(/C=C2/C(=O)NC(=O)N2CCCC)n1Cc1ccc(C2(C(=O)OC)CCCCC2)cc1 [Example 88a] |
| 528 nM | CCCCc1ncc(/C=C2\C(=O)NC(=O)N2CCCC)n1Cc1ccc(C2(C(=O)OC)CCCCC2)cc1 [Example 88b, Methyl E-1-[4-[[2-butyl-5-[[3-butyl-2,5dioxo-4-imidazolidinylidene]methyl]-1H-imidazol-1-yl]methyl]phenyl]cyclohexanecarboxylate] |

Continued, molecule first:

| SMILES | IC50 |
| --- | --- |
| CCCCc1ncc(/C=C2\C(=O)N(CCCC)C(=O)N2Cc2csc(C)n2)n1Cc1ccc(C(=O)O)cc1 [Example 60, E-4-[[2-butyl-5-[[1-butyl-3-[(2-methyl-4-thiazolyl)methyl]-2,5-dioxo-4-imidazolidinylidene]methyl]-1H-imidazol-1-yl]methyl]benzoic acid] | 2.63 nM |
| CCCCc1ncc(/C=C2/C(=O)N(CCCC)C(=O)N2Cc2ccccc2Cl)n1Cc1ccc(C(=O)OC)cc1 [Example 61, Methyl Z-4-[[2-butyl-5-[[1-butyl-3-[(2-chlorophenyl)methyl]-2,5-dioxo-4-imidazolidinylidene]methyl]-1H-imidazol-1-yl-]methyl]benzoate monohydrochloride] | 59.8 nM |
| CCCCc1ncc(/C=C2/C(=O)N(CCCC)C(=O)N2Cc2csc(N)n2)n1Cc1ccc(C(=O)OC)cc1 [Example 62, Methyl Z-4-[[2-butyl-5-[[1-butyl-3-[(2-amino-4-thiazolyl)methyl]-2,5-dioxo-4-imidazolidinylidene]methyl]-1H-imidazol-1-yl]methyl]benzoate dihydrochloride] | 1.21 nM |
| CCCCc1ncc(/C=C2/C(=O)NC(=O)N2Cc2cccs2)n1Cc1ccc(C(=O)OC)cc1 [Example 63] | 5.08 nM |
| CCCCc1ncc(/C=C2/C(=O)NC(=O)N2Cc2ccc(Cl)cc2)n1Cc1ccc(C(=O)OC)cc1 [Example 64, Methyl Z-4-[[2-butyl-5-[[3-[(4-chlorophenyl)methyl]-2,5-dioxo-4-imidazolidinylidene]methyl]-1H-imidazol-1-yl]methyl]benzoate monohydrochloride] | 4.3 nM |
| CCCCc1ncc(CC2C(=O)NC(=O)N2CCCC)n1Cc1ccc(C(=O)O)cc1 (stereo not shown) [Example 65, 4-[[2-Butyl-5-[(3-butyl-2,5-dioxo-4-imidazolidinyl)methyl]-1H-imidazol-1-yl]methyl]benzoic acid] | 200 nM |
| CCCCc1ncc(/C=C2/C(=O)N(CCCC)C(=O)N2Cc2csc(C)n2)n1Cc1ccc(C(=O)OC)cc1 [Example 68, Methyl Z-4-[[2-butyl-5-[[1-butyl-3-[(2-methyl-4-thiazolyl)methyl]-2,5-dioxo-4-imidazolidinylidene]methyl]-1H-imidazol-1-yl]methyl]benzoate dihydrochloride] | 4.2 nM |
| CCCCc1ncc(/C=C2/C(=O)N(CCCC)C(=O)N2Cc2c(C)noc2C)n1Cc1ccc(C(=O)OC)cc1 [Example 69, Methyl Z-4-[[2-butyl-5-[[1-butyl-3-[(3,5-dimethyl-4-isoxazolyl)methyl]-2,5-dioxo-4-imidazolidinylidene]methyl]-1H-imidazol-1-yl]methyl]benzoate monohydrochloride] | 198 nM |
| CCCCc1ncc(/C=C2/C(=O)N(CCCC)C(=O)N2Cc2sccc2C)n1Cc1ccc(C(=O)OC)cc1 [Example 72, Methyl Z-4-[[2-butyl-5-[[1-butyl-3-[(3-methyl-2-thienyl)methyl]-2,5-dioxo-4-imidazolidinylidene]methyl]-1H-imidazol-1-yl]methyl]benzoate hydrochloride] | 23.9 nM |
| CCCCc1ncc(/C=C2/C(=O)N(CCCC)C(=O)N2Cc2ccc(C)s2)n1Cc1ccc(C(=O)O)cc1 [Example 74, Z-4-[[2-butyl-5-[[1-butyl-3-[(5-methyl-2-thienyl)methyl]-2,5-dioxo-4imidazolidinylidene]methyl]-1H-imidazol-1-yl]methyl]benzoic acid] | 0.6 nM |
| CCCCc1ncc(/C=C2/C(=O)N(CCCC)C(=O)N2Cc2cccs2)n1Cc1ccc(C(=O)O)cc1 [Example 75, Z-4-[[2-butyl-5-[[1-butyl-2,5-dioxo-3-(2-thienylmethyl)-4-imidazolidinylidene]methyl]-1H-imidazol-1-yl]methyl]benzoic acid] | 0.64 nM |
| CCCCc1ncc(/C=C2/C(=O)N(CCCC)C(=O)N2Cc2ccc(Br)s2)n1Cc1ccc(C(=O)OC)cc1 [Example 77, Methyl Z-4-[[5-[[3-[(5-bromo-2-thienyl)methyl]-1-butyl-2,5-dioxo-4-imidazolidinylidene]methyl]-2-butyl-1H-imidazol-1-yl]methyl]benzoate monohydrochloride] | 17.8 nM |
| CCCCc1ncc(/C=C2/C(=O)N(CCCC)C(=O)N2Cc2cc(Br)cs2)n1Cc1ccc(C(=O)OC)cc1 [Example 78, Methyl Z-4-[[5-[[3-[(4-bromo-2-thienyl)methyl]-1-butyl-2,5-dioxo-4-imidazolidinylidene]methyl]-2-butyl-1H-imidazol-1-yl]methyl]benzoate monohydrochloride] | 21.9 nM |
| CCCCc1ncc(/C=C2/C(=O)N(CCCC)C(=O)N2CCc2cccs2)n1Cc1ccc(C(=O)OC)cc1 [Example 79, Methyl Z-4-[[2-butyl-5-[[1-butyl-2,5-dioxo-3-[2(2-thienyl)ethyl]-4-imidazolidinylidene]methyl]-1H-imidazol-1-yl]methyl]benzoate monohydrochloride] | 14.5 nM |
| CCCCc1ncc(/C=C2/C(=O)N(CCCC)C(=O)N2CCc2ccsc2)n1Cc1ccc(C(=O)OC)cc1 [Example 80, Methyl Z-4-[[2-butyl-5-[[1-butyl-2,5-dioxo-3-[2-(3-thienyl)ethyl]-4-imidazolidinylidene]methyl]-1H-imidazol-1-yl]methyl]benzoate monohydrochloride] | 14.6 nM |
| CCCCc1ncc(/C=C2/C(=O)N(CCCC)C(=O)N2Cc2csc(Br)c2)n1Cc1ccc(C(=O)OC)cc1 [Example 81, Methyl Z-4-[[5-[[3-[(5-bromo-3-thienyl)methyl]-1-butyl-2,5-dioxo-4-imidazolidinylidene]methyl]-2-butyl-1H-imidazol-1-yl]methyl]benzoate monohydrochloride] | 25.4 nM |
| CCCCc1ncc(/C=C2\NC(=O)N(CCCC)C2=O)n1Cc1ccc(C2(C(=O)OC)CCCC2)cc1 [Example 83, Methyl Z-1-[4-[[2-butyl-5-[(1-butyl-2,5-dioxo-4-imidazolidinylidene)methyl]-1H-imidazol-1-yl]methyl]phenyl]cyclopentanecarboxylate] | > 1000 nM |
| CCCCc1ncc(/C=C2/C(=O)N(CCCC)C(=O)N2Cc2csc(C)n2)n1Cc1ccc(C2(C(=O)OC)CCCC2)cc1 [Example 84, Methyl Z-1-[4-[[2-butyl-5-[[1-butyl-[3(2-methyl-4-thiazoly)methyl]-2,5-dioxo-4-imidazolidinylidene]methyl]-1H-imidazol-1-yl]methyl]phenyl]cyclopentane-carboxylate monohydrochloride] | 124 nM |
| CCCCc1ncc(/C=C2/C(=O)N(CCCC)C(=O)N2Cc2csc(C)n2)n1Cc1ccc(C2(C(=O)O)CCCC2)cc1 [Example 85] | 1.86 nM |
| CCCCc1ncc(/C=C2\C(=O)N(Cc3csc(C)n3)C(=O)N2CCCC)n1Cc1ccc(C(=O)OC)cc1 [Example 86, Methyl E-4-[[2-butyl-5-[[3-butyl-1-[(2-methyl-4-thiazolyl)methyl]-2,5-dioxo-4-imidazolidinylidene]methyl]-1H-imidazol-1-yl]methyl]benzoate dihydrochloride] | 4.58 nM |
